Target: T1, Sodium- and chloride-dependent taurine transporter (Homo sapiens, UniProt P31641)
T1 sequence (P31641 whole entry): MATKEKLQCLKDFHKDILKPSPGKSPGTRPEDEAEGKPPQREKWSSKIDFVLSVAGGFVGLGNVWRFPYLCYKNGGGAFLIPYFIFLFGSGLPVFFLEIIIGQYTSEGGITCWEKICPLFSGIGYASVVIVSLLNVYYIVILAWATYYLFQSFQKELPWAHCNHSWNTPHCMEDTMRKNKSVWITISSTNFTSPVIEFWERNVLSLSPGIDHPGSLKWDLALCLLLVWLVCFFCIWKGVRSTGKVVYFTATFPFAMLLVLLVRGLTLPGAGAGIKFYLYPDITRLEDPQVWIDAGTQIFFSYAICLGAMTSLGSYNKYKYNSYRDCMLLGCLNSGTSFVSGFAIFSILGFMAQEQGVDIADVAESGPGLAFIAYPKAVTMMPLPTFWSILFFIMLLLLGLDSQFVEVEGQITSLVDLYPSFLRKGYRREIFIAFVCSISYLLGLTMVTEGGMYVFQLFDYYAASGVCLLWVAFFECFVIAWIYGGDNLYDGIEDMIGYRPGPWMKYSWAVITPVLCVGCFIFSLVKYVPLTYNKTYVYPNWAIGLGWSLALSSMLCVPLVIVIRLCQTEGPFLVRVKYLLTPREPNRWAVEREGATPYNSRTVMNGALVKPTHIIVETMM
Assay: Substrate uptake by the Taurine Transporter (TauT, SLC6A6) as assessed by the fluorescent FLIPR membrane potential dye in HEK-293 JumpIN-SLC6A6 cells (PubChem AID: 1794824)
Type: functional, cell-based, HEK293

Structure (SMILES)	EC50 [µM]
NCCCC(=O)O [GAMMA-AMINOBUTYRIC ACID]	354
NCCS(=O)(=O)O [TAURINE]	10

Reference: ChEMBL document CHEMBL5209582, “Membrane potential based assay for SLC6A6 using HEK-293 SLC6A6 OE cells” (2022)
